{
  "source": "patent US12194027B2",
  "about": "“Small molecule inhibitors of GPCR GPR68 and related receptors for treating cancer, glioblastoma, and other indications” (UNIVERSITY OF MARYLAND, BALTIMORE, priority 2019, dated 2025)",
  "key": {"GPR68/OGR1": {"target": "GPR68/OGR1 (Homo sapiens (Human), UniProt Q15743)", "sequence (Q15743 whole entry)": "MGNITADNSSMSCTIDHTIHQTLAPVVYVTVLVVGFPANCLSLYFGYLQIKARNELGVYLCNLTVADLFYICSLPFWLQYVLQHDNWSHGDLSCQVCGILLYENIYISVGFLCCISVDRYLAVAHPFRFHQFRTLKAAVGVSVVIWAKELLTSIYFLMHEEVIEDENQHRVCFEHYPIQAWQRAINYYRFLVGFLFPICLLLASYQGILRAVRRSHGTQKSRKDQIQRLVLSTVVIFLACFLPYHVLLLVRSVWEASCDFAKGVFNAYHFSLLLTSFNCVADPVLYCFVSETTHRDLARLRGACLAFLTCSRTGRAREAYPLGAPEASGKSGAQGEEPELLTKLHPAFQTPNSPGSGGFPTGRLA", "assay": "inhibition of GPR68/OGR1 in CHEM1-OGR1 cells, Fluo-8 calcium response to acidified media", "type": "cell-based", "conditions": "acidified media pH 6.4, Fluo-8", "protocol": "Briefly, the methods were: On the day before the assay 20,000 cells per well of CHEM1-OGR1 cells were plated in 10% DMEM containing 10% FBS and 1% Pen/Strep into a 96 well plate. After 24 hours media was removed and cells were stained with 80 uL Fluo-8 calcium indicator dye according to manufacturer's protocol. After staining cells were treated with 20 uL of 4× concentration of test compounds. Using kinetic imaging in the Lionheart HCS fluorescence intensity was continuously measure at 10 frames per second, for 5 seconds before 100 μL of acidified media was added to the well resulting in a pH of 6.4. A ratio of fluorescence intensities prior to addition and at peak were calculated and averaged. The resulting data were platted and using a 4 parameter logistic regression EC50 for each test compound was determined."}, "GPR68 [1]": {"target": "T1, GPR68 (Homo sapiens (Human), UniProt Q15743)", "T1 sequence (Q15743 whole entry, looked up)": "as the sequence (Q15743 whole entry) above", "assay": "GPR68 inhibitory activity of OGM analogs (Table 5)", "type": "cell-based", "protocol": "GPCR profiling assays were performed by Millipore (St. Louis, MO) using in cells expressing Gα15, a promiscuous G protein that enhances GPCR coupling to downstream Ca2+ signaling pathways.\nSince GPCRs represent >30% of targets for FDA-approved small molecules and are known to modulate cell migration, activity against 158 GPCRs was assessed based on their chemical structures. GPCRs (158) were tested for agonist and antagonist activity at 10 μM. […] Chemical segregation analysis of zebrafish phenotype was conducted to further identify the inhibitory activity responsible for the zebrafish phenotype. […] The identities of the R groups in FIG. 2B are shown below in Table 5.\n(§1) Chem1-GPR68 reporter cells were treated with 20 uM OM8345 for 2 hours and then rinsed with HBSS. […] The GPR68 inhibitory activity of OGM analogs segregated with the ability of the molecule to induce the phenotype in zebrafish. Neural crest progenitors labeled with In situ hybridization of FoxD3 show normal formation of the progenitor pool."}, "GPR68 [2]": {"target": "T1, GPR68", "assay": "Chem-1 OGR1/GPR68 recovery assay after inhibitor washout", "type": "cell-based", "protocol": "Chem-1 OGR1/GPR68 cells from Millipore™ (St. Louis, MO) were plated in 96-well format and stained with Fluo-8. Using the Lionheart FX (Biotek™) a baseline for 3 seconds was observed before the medium was acidified using an automated injector to reach pH 6.8. Cells then were dynamically monitored and change in fluorescence was quantified using Gen5 software (Biotek™). Pretreatment of 10 μM OGM2 for 4 hours was used. Each well was only assayed once at the correct time interval after inhibitor removal.\nas §1\nAdditional experiments, OGM2 resynthesized and used (due to its submicromolar potency and GPR68 specificity) were performed. See FIG. 3A (HNMR of resynthesis of OGM2) and FIG. 3B (LCMS of resynthesis of OGM2). To test the possibility of OGM2 being an irreversible inhibitor, Chem1-OGR1 cells (Millipore™) were incubated with 10 μM OGM2 for 4 hours, and after removing the compound stimulated with pH 6.4 medium. […] Time till 50% max ˜52 minutes. The signal returned back towards baseline uninhibited levels in a rapid and time-dependent manner."}, "U87 glioblastoma cells": {"system": "U87 glioblastoma cells", "assay": "calcium release on acidification in U87 cells (Fluo-8)", "type": "cell-based", "conditions": "media pH6.4, Fluo-8", "source_text": "GPR68 is known to signal through Gq which results in a calcium flux out of the Endoplasmic reticulum. U87 glioblastoma cells were stained, using a calcium-sensitive vital dye Fluo-8, and stimulated with acidification of the media to pH6.4. The cells respond to the acidification with a burst of calcium release, this is inhibited by OGM2."}, "A2058 melanoma cell line": {"system": "A2058 melanoma cell line", "assay": "scratch assay for migration, A2058", "type": "cell-based, human", "conditions": "OGM 5 μM, EIPA 10 μM, 20 hours", "protocol": "(§2) Cells were grown to confluence and the cells were denuded with a P200 tip. A medium change was done to add fresh medium, remove loose cells and add compounds OGM (5 μM) and EIPA (10 μM). The area of the scratch was observed 20 hours later.\n(§3) Since there are numerous parallels are found between neural crest cells and cancer during migration, we examined whether OGM could inhibit the migration of cells in human melanoma cell lines (Oppitz et al., 2007; Schriek et al., 2005; Sinnberg et al., 2018). […] A2058, MeWo and WM115 cells were grown to confluence and a stripe of cells were denuded with a p200 pipette tip “scratch” and rinsed with PBS. Cells were treated with OGM or EIPA, or DMSO and incubated in low serum media. Imaging was done at 30 minutes after “scratch” and then 20 hours afterwards. Areas were then measured and normalized to the initial area.\n(§4) Previous studies with the MV3 melanoma cell line have shown that disruption of proton efflux with EIPA inhibition of NHE1 can also reduce melanoma motility (Ludwig et al., 2013; Schneider et al., 2009; Stock et al., 2007, 2005; Stüwe et al., 2007). […] Although the expression of GPR68 and other proton-sensing receptors have been characterized in various skin cancers (Merkel cell carcinoma, dermatofibrosarcoma protuberans, atypical fibroxanthoma, and pleomorphic dermal sarcoma), expression in melanoma cell lines has not investigated (Nassios et al., 2019)."}, "MeWo melanoma cell line": {"system": "MeWo melanoma cell line", "assay": "scratch assay for migration, MeWo", "type": "cell-based, human", "conditions": "OGM 5 μM, EIPA 10 μM, 20 hours", "protocol": "as §2, §3, §4"}, "WM115 melanoma cell line": {"system": "WM115 melanoma cell line", "assay": "scratch assay for migration, WM115", "type": "cell-based, human", "conditions": "OGM 5 μM, EIPA 10 μM, 20 hours", "protocol": "as §2, §3, §4"}, "[3]": {"system": "U87 glioblastoma spheroids", "assay": "matrix invasion of U87 spheroids in Matrigel, acidified media", "type": "cell-based", "source_text": "U87 glioblastoma spheroids were formed in low attachment round bottom plates for 3 days. Spheroids were then covered in Matrigel™, which was allowed to polymerize before treatment with acidified media with or without OGM2. Acidification increased the degree of matrix invasion which is attenuated by OGM2."}, "Spheroids": {"system": "Spheroids", "assay": "pH dependent tumoroid growth", "type": "cell-based", "conditions": "pH 6.2 vs pH 8 buffered media, 3 days", "protocol": "Spheroids were formed over 3 days using low attachment 96-well round bottom plates and then treated with DMSO or OGM2 in either pH 8 buffered media or pH 6.2 buffered media and grown for 3 days. The size (area) of spheroids was measured in relative area units. […] This increase in growth was abrogated by OGM2."}, "PANC02 pancreatic cells [4]": {"system": "PANC02 pancreatic cells", "assay": "PANC02 scratch migration", "type": "cell-based", "conditions": "10 μM, 24 hours", "protocol": "In a second study, PANC02 pancreatic cells plated and grown to confluence. Using a P200 tip, cells were denuded and allowed to migrate for 24 hours in DMSO or 10 μM OGM2 and imaged."}, "PANC02 pancreatic cells [5]": {"system": "PANC02 pancreatic cells", "assay": "PANC02 clonogenicity (crystal violet)", "type": "cell-based", "conditions": "7 days", "protocol": "In a third study, PANC02 pancreatic cells were plated at 400 cells per well in a 6-well plate and on the next day were treated with increasing concentrations of OGM2 for 7 days. The plate was fixed with formalin and stained with crystal violet."}, "A549 lung cancer cells [6]": {"system": "A549 lung cancer cells", "assay": "A549 viability (crystal violet)", "type": "cell-based", "conditions": "24 hours", "protocol": "A549 lung cancer cells were plated at different concentrations of cell per well in a 96-well plate. On the following day cells were treated with increasing doses of OGM2. Twenty-four hours later cells viability was assayed with crystal violet and normalized to untreated."}, "A549 lung cancer cells [7]": {"system": "A549 lung cancer cells", "assay": "A549 clonogenicity (crystal violet)", "type": "cell-based", "conditions": "8 days", "protocol": "A549 lung cancer cells were plated at 300 cells per well in a 6-well plate and on the next day were treated with increasing concentrations of OGM2 for 8 days. The plate was fixed with formalin and stained with crystal violet. See FIG. 25B for results at the indicated concentrations."}, "breast (MDA MB231)": {"system": "breast (MDA MB231)", "assay": "viability (cell titer blue), breast cancer cells", "type": "cell-based", "conditions": "MDA MB231, 72 hours", "protocol": "(§5) Multiple studies were conducted as discussed herein, but with different cancer type cohorts. Data was extracted from Gene expression omnibus using ProggeneV2. Briefly, probes were prepared using standard Affymetrix™ protocols, and hybridized to Affymetrix™ HG-U133A and HG-U133B arrays. The cohort was separated by High and low expression of GPR68 by above or below the median expression level. Survival of the cohorts was plotted in FIG. 26A. Survival of multiple cancer types including breast (MDA MB231), glioblastoma (U87), and Prostatic Neuroendocrine cancer (PNEC: PC3) is shown in FIG. 26B. Cells were plated in 96-well plates and then treated with increasing doses OGM2. Seventy-two hours later, survival was assayed with cell titer blue. Each cell line was normalized to DMSO treated control."}, "[8]": {"system": "Prostatic Neuroendocrine cancer (PNEC: PC3)", "assay": "viability (cell titer blue), prostate cancer cells", "type": "cell-based", "conditions": "PC3, 72 hours", "protocol": "as §5"}, "U87 cells": {"system": "U87 cells", "assay": "U87 viability with temozolomide plus OGM2", "type": "cell-based", "conditions": "0.5 μM or 5 μM OGM2 with increasing TMZ", "protocol": "U87 cells were treated with increasing concentrations of temozolomide (TMZ) without OGM2 or with 0.5 μM or 5 μM OGM2."}},
  "data": [
    {"smiles": "CCc1ccc2c(c1)C1(NN=C(c3ccccc3)S1)C(=O)N2", "note": "(centres unmarked) [OGM2]", "values": [
      {"measurement": "EC50", "setting": "GPR68/OGR1", "result": 1350, "unit": "nM"},
      {"measurement": "IC50", "setting": "GPR68 [1]", "result": 710, "unit": "nM"},
      {"measurement": "recovery of GPR68 activity after washout", "setting": "GPR68 [2]; 10 μM for 4 hours, then removed", "result": "restored rapidly after washout of inhibitor"},
      {"measurement": "Time till 50% max (recovery of GPR68 activity)", "setting": "GPR68 [2]; after 10 μM for 4 hours, washout, pH 6.4 medium", "result": "~52", "unit": "min"},
      {"measurement": "calcium release in response to acidification", "setting": "U87 glioblastoma cells", "result": "inhibited"},
      {"measurement": "migration in scratch assay", "setting": "A2058 melanoma cell line", "result": "migrated significantly less"},
      {"measurement": "migration in scratch assay", "setting": "MeWo melanoma cell line", "result": "migrated significantly less"},
      {"measurement": "migration in scratch assay", "setting": "WM115 melanoma cell line", "result": "migrated significantly less"},
      {"measurement": "degree of matrix invasion", "setting": "[3]", "result": "attenuated"},
      {"measurement": "increase in spheroid growth at pH 6.2", "setting": "Spheroids", "result": "abrogated"},
      {"measurement": "migration", "setting": "PANC02 pancreatic cells [4]", "result": "significantly reduced migration"},
      {"measurement": "clonogenicity", "setting": "PANC02 pancreatic cells [5]", "result": "reduced the clonogenicity"},
      {"measurement": "toxicity (cell viability)", "setting": "A549 lung cancer cells [6]", "result": "relatively High doses of OGM2 are necessary for toxicity"},
      {"measurement": "clonogenicity", "setting": "A549 lung cancer cells [7]", "result": "reduced the clonogenicity"},
      {"measurement": "viability", "setting": "breast (MDA MB231)", "result": "Reduces Viability"},
      {"measurement": "viability", "setting": "[8]", "result": "Reduces Viability"},
      {"measurement": "cell viability in combination with temozolomide (TMZ)", "setting": "U87 cells", "result": "synergistic result"}
    ]}
  ]
}
